{"source": "ChEMBL document CHEMBL4422618", "about": "“Translational impact of novel widely pharmacological characterized mofezolac-derived COX-1 inhibitors combined with bortezomib on human multiple myeloma cell lines viability” (Eur J Med Chem, 2019)", "key": {"Platelet": {"test_system": "Platelet", "experiment": "Antiplatelet activity in human platelet rich plasma assessed as inhibition of arachidonic acid-induced platelet aggregation preincubated for 2 mins followed by arachidonic acid addition by turbidimetric method", "format": "functional, cell-based"}, "Plasma [1]": {"test_system": "Plasma", "experiment": "Anticoagulant activity in human platelet poor plasma assessed as activated partial thromboplastin time at 100 uM incubated for 15 mins at room temperature and subsequent incubation for 2 mins at 37 degreeC followed by cephalin addition and measured after 2 mins for every secs in presence of CaCl2", "format": "functional"}, "Plasma [2]": {"test_system": "Plasma", "experiment": "Anticoagulant activity in human platelet poor plasma assessed as prothrombin time at 100 uM incubated for 15 mins at room temperature and subsequent incubation for 2 mins at 37 degreeC followed by PBS addition and measured after 3 mins for every secs in presence of calcium thromboplastin", "format": "functional"}, "[3]": {"experiment": "Hemolytic activity in erythrocytes (unknown origin) at 100 uM after 3 hrs by spectrophotometric analysis", "format": "ADME, cell-based, Erythrocyte", "conditions": "read-out: Activity"}, "[4]": {"experiment": "Mutagenicity in Salmonella typhimurium TA97 at 500 uM by Ames test", "format": "toxicity", "conditions": "salmonella enterica subsp. enterica serovar typhimurium"}, "[5]": {"experiment": "Mutagenicity in Salmonella typhimurium TA98 at 500 uM by Ames test", "format": "toxicity", "conditions": "salmonella enterica subsp. enterica serovar typhimurium"}, "[6]": {"experiment": "Mutagenicity in Salmonella typhimurium TA100 at 500 uM by Ames test", "format": "toxicity", "conditions": "salmonella enterica subsp. enterica serovar typhimurium"}, "[7]": {"experiment": "Mutagenicity in Salmonella typhimurium TA102 at 500 uM by Ames test", "format": "toxicity", "conditions": "salmonella enterica subsp. enterica serovar typhimurium"}, "[8]": {"experiment": "Genotoxicity in Escherichia coli PQ35 at 500 uM after overnight incubation by SOS chromotest", "format": "toxicity"}, "[9]": {"experiment": "Genotoxicity in Escherichia coli PQ37 at 500 uM after overnight incubation by SOS chromotest", "format": "toxicity"}, "NCI-H929 [10]": {"test_system": "NCI-H929", "experiment": "Cytotoxicity against human NCI-H929 cells assessed as reduction in cell viability at […] after 48 hrs by CCK8 assay", "format": "functional, cell-based"}, "RPMI-8226 [11]": {"test_system": "RPMI-8226", "experiment": "Cytotoxicity against human RPMI8226 cells assessed as reduction in cell viability at 42 nM after 48 hrs by CCK8 assay relative to control", "format": "functional"}, "NCI-H929 [12]": {"test_system": "NCI-H929", "experiment": "Potentiation of bortezomib-induced cytotoxicity against human NCI-H929 cells assessed as reduction in cell viability at […] after 48 hrs in presence of bortezomib by CCK8 assay", "format": "functional, cell-based"}, "RPMI-8226 [13]": {"test_system": "RPMI-8226", "experiment": "Potentiation of bortezomib-induced cytotoxicity against human RPMI8226 cells assessed as reduction in cell viability at […] after 48 hrs in presence of bortezomib by CCK8 assay", "format": "functional"}, "NCI-H929 [14]": {"test_system": "NCI-H929", "experiment": "Cell cycle arrest in human NCI-H929 cells assessed as accumulation at G0/G1 phase at […] in presence of bortezomib after 48 hrs by propidium iodide/RNase staining based flow cytometric method relative to bortezomib alone", "format": "functional"}, "NCI-H929 [15]": {"test_system": "NCI-H929", "experiment": "Cell cycle arrest in human NCI-H929 cells assessed as accumulation at S phase at […] in presence of bortezomib after 48 hrs by propidium iodide/RNase staining based flow cytometric method relative to bortezomib alone", "format": "functional"}, "RPMI-8226 [16]": {"test_system": "RPMI-8226", "experiment": "Cell cycle arrest in human RPMI8226 cells assessed as accumulation at G0/G1 phase at […] after 48 hrs by propidium iodide/RNase staining based flow cytometric method", "format": "functional"}, "RPMI-8226 [17]": {"test_system": "RPMI-8226", "experiment": "Cell cycle arrest in human RPMI8226 cells assessed as accumulation at S phase at […] after 48 hrs by propidium iodide/RNase staining based flow cytometric method", "format": "functional"}, "NCI-H929 [18]": {"test_system": "NCI-H929", "experiment": "Induction of apoptosis in human NCI-H929 cells assessed as early apoptotic cells at […] after 48 hrs by Annexin-V/propidium iodide staining based flow cytometric method (reference value: 17.1%)", "format": "functional"}, "NCI-H929 [19]": {"test_system": "NCI-H929", "experiment": "Induction of apoptosis in human NCI-H929 cells assessed as late apoptotic cells at […] after 48 hrs by Annexin-V/propidium iodide staining based flow cytometric method (reference value: 0.23%)", "format": "functional"}, "NCI-H929 [20]": {"test_system": "NCI-H929", "experiment": "Induction of apoptosis in human NCI-H929 cells assessed as necrotic cells at […] after 48 hrs by Annexin-V/propidium iodide staining based flow cytometric method (reference value: 0.0034%)", "format": "functional"}, "NCI-H929 [21]": {"test_system": "NCI-H929", "experiment": "Induction of apoptosis in human NCI-H929 cells assessed as viable cells at […] after 48 hrs by Annexin-V/propidium iodide staining based flow cytometric method (reference value: 82.6%)", "format": "functional", "conditions": "NCI-H929, 48 h, read-out: Activity"}, "NCI-H929 [22]": {"test_system": "NCI-H929", "experiment": "Induction of apoptosis in human NCI-H929 cells assessed as early apoptotic cells at […] after 48 hrs in presence of bortezomib by Annexin-V/propidium iodide staining based flow cytometric method (reference value: 17.1%)", "format": "functional"}, "NCI-H929 [23]": {"test_system": "NCI-H929", "experiment": "Induction of apoptosis in human NCI-H929 cells assessed as late apoptotic cells at […] after 48 hrs in presence of bortezomib by Annexin-V/propidium iodide staining based flow cytometric method (reference value: 0.23%)", "format": "functional"}, "NCI-H929 [24]": {"test_system": "NCI-H929", "experiment": "Induction of apoptosis in human NCI-H929 cells assessed as necrotic cells at […] after 48 hrs in presence of bortezomib by Annexin-V/propidium iodide staining based flow cytometric method (reference value: 0.0034%)", "format": "functional"}, "NCI-H929 [25]": {"test_system": "NCI-H929", "experiment": "Induction of apoptosis in human NCI-H929 cells assessed as viable cells at […] after 48 hrs in presence of bortezomib by Annexin-V/propidium iodide staining based flow cytometric method (reference value: 82.6%)", "format": "functional", "conditions": "NCI-H929, 48 h, read-out: Activity"}, "RPMI-8226 [26]": {"test_system": "RPMI-8226", "experiment": "Induction of apoptosis in human RPMI8226 cells assessed as early apoptotic cells at […] after 48 hrs in presence of bortezomib by Annexin-V/propidium iodide staining based flow cytometric method (reference value: 1.05%)", "format": "functional"}, "RPMI-8226 [27]": {"test_system": "RPMI-8226", "experiment": "Induction of apoptosis in human RPMI8226 cells assessed as late apoptotic cells at […] after 48 hrs in presence of bortezomib by Annexin-V/propidium iodide staining based flow cytometric method (reference value: 0.21%)", "format": "functional"}, "RPMI-8226 [28]": {"test_system": "RPMI-8226", "experiment": "Induction of apoptosis in human RPMI8226 cells assessed as necrotic cells at […] after 48 hrs in presence of bortezomib by Annexin-V/propidium iodide staining based flow cytometric method (reference value: 0.090%)", "format": "functional"}, "RPMI-8226 [29]": {"test_system": "RPMI-8226", "experiment": "Induction of apoptosis in human RPMI8226 cells assessed as viable cells at […] after 48 hrs in presence of bortezomib by Annexin-V/propidium iodide staining based flow cytometric method (reference value: 98.7%)", "format": "functional", "conditions": "RPMI-8226, 48 h, read-out: Activity"}, "RPMI-8226 [30]": {"test_system": "RPMI-8226", "experiment": "Cell cycle arrest in human RPMI8226 cells assessed as accumulation at G0/G1 phase at […] in presence of bortezomib after 48 hrs by propidium iodide/RNase staining based flow cytometric method relative to bortezomib", "format": "functional"}, "RPMI-8226 [31]": {"test_system": "RPMI-8226", "experiment": "Cell cycle arrest in human RPMI8226 cells assessed as accumulation at S phase at […] in presence of bortezomib after 48 hrs by propidium iodide/RNase staining based flow cytometric method relative to bortezomib", "format": "functional"}, "RPMI-8226 [32]": {"test_system": "RPMI-8226", "experiment": "Cell cycle arrest in human RPMI8226 cells assessed as reduction in accumulation at G2/M phase at […] in presence of bortezomib after 48 hrs by propidium iodide/RNase staining based flow cytometric method relative to bortezomib", "format": "functional"}}, "note": "Active and inactive are the calls of the source. The calls are words filed in the database; no cut-off is given here."}
{"smiles": "COc1ccc(-c2noc(CC(=O)O)c2-c2ccc(OC)cc2)cc1", "note": "[MOFEZOLAC]", "values": [{"measurement": "IC50", "setting": "Platelet", "result": 450, "unit": "nM"}, {"measurement": "APTT", "setting": "Plasma [1]", "result": 50.8, "unit": "s"}, {"measurement": "PT", "setting": "Plasma [2]", "result": 14.2, "unit": "s"}, {"measurement": "hemolysis at 3 h, 100 µM", "setting": "[3]", "result": 0, "unit": "%"}, {"measurement": "Activity", "setting": "[4]", "result": "Non-Toxic"}, {"measurement": "Activity", "setting": "[5]", "result": "Non-Toxic"}, {"measurement": "Activity", "setting": "[6]", "result": "Non-Toxic"}, {"measurement": "Activity", "setting": "[7]", "result": "Non-Toxic"}, {"measurement": "Activity", "setting": "[8]", "result": "Non-Toxic"}, {"measurement": "Activity", "setting": "[9]", "result": "Non-Toxic"}, {"measurement": "Activity", "setting": "NCI-H929 [10]", "result": "inactive"}, {"measurement": "Activity", "setting": "RPMI-8226 [11]", "result": 1, "unit": "%"}, {"measurement": "Activity", "setting": "NCI-H929 [12]", "result": "inactive"}, {"measurement": "Activity", "setting": "RPMI-8226 [13]", "result": 56, "unit": "%"}, {"measurement": "Activity", "setting": "NCI-H929 [14]", "result": 15, "unit": "%"}, {"measurement": "Activity", "setting": "NCI-H929 [15]", "result": 15, "unit": "%"}, {"measurement": "Activity", "setting": "RPMI-8226 [16]", "result": "inactive"}, {"measurement": "Activity", "setting": "RPMI-8226 [17]", "result": "inactive"}, {"measurement": "Activity", "setting": "NCI-H929 [18]", "result": 18.7, "unit": "%"}, {"measurement": "Activity", "setting": "NCI-H929 [19]", "result": 0.13, "unit": "%"}, {"measurement": "Activity", "setting": "NCI-H929 [20]", "result": 0, "unit": "%"}, {"measurement": "viability at […]", "setting": "NCI-H929 [21]", "result": 81.1, "unit": "%"}, {"measurement": "Activity", "setting": "NCI-H929 [22]", "result": 64.3, "unit": "%"}, {"measurement": "Activity", "setting": "NCI-H929 [23]", "result": 0.24, "unit": "%"}, {"measurement": "Activity", "setting": "NCI-H929 [24]", "result": 0, "unit": "%"}, {"measurement": "viability at […]", "setting": "NCI-H929 [25]", "result": 35.4, "unit": "%"}, {"measurement": "Activity", "setting": "RPMI-8226 [26]", "result": 7.86, "unit": "%"}, {"measurement": "Activity", "setting": "RPMI-8226 [27]", "result": 0.31, "unit": "%"}, {"measurement": "Activity", "setting": "RPMI-8226 [28]", "result": 0.006, "unit": "%"}, {"measurement": "viability at […]", "setting": "RPMI-8226 [29]", "result": 91.8, "unit": "%"}, {"measurement": "Activity", "setting": "RPMI-8226 [30]", "result": "Active"}, {"measurement": "Activity", "setting": "RPMI-8226 [31]", "result": "Active"}, {"measurement": "Activity", "setting": "RPMI-8226 [32]", "result": "Active"}]}
